# Patent US20240279176A1, “SUBSTITUTED TRICYCLIC HETEROCYCLIC COMPOUNDS AS METALLO-BETA-LACTAMASE INHIBITORS” (priority 2021, published 2024)
# Like-named read-outs stand apart in the source and are kept apart here.
# Tests used:
# IMP-1 = IMP-1 (Serratia marcescens, UniProt P52699); test: Enzyme activity: IC50 in fluorescence assay with cephalosporin substrate FC5; assay type: biochemical; settings: 100 pM IMP-1, 10 μM FC5, 10 min pre-incubation
# Procedure: (§1) The Class B beta-lactamases activities were measured in the presence of the test inhibitors in a fluorescence assay against an in-house synthesized fluorescent cephalosporin substrate FC5 (Berkel, et. al. J. Med. Chem. 2013, 56(17), 6945). The enzymes (NDM-1, IMP-1) and the substrate were diluted in 20 mM HEPES, pH 7.4, supplemented with 300 mM NaCl and 10 μM ZnSO4. In the assay, the final concentration of enzyme was 50 pM, and 100 pM for NDM-1, and IMP-1 respectively, and the final concentration of FC5 was 1.5 μM for NDM-1 and 10 μM for IMP-1. The test inhibitors/compounds were dissolved in dimethylsulfoxide (DMSO) and diluted in the assay with assay buffer (20 mM HEPES, pH 7.4, supplemented with 5% DMSO, 300 mM NaCl and 10 μM ZnSO4), resulting in a final concentration range of 0.008 μM to 25 μM. The assays were performed in 96-well microplate (flat bottom, black). The test inhibitors were incubated with the MBL enzyme for 10 min at room temperature, followed by addition the substrate and the fluorescence was recorded immediately (λex 380 nm, λem 460 nm) on a microplate reader. Using the initial velocity data plotted against the inhibitor concentration, the half-maximal inhibitory concentrations were calculated by an IC50 curve-fitting model in GraphPad Prism 9 software.
# NDM-1 = NDM-1 (Klebsiella pneumoniae, UniProt C7C422); test: as above; assay type: biochemical; settings: 50 pM NDM-1, 1.5 μM FC5, 10 min pre-incubation
# Sequence of NDM-1 (C7C422 29-270, looked up): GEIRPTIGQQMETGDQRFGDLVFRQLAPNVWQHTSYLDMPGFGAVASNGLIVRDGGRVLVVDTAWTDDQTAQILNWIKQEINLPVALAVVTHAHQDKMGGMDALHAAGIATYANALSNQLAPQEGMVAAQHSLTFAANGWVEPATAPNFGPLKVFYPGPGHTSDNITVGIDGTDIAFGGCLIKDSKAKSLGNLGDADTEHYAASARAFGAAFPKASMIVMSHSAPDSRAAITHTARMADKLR
# Procedure: as §1
# [1] = system: Klebsiella pneumoniae ATCC BAA-2146; test: Checkerboard synergy assay in combination with Imipenem; assay type: cell-based; settings: K. pneumoniae ATCC BAA-2146; for Fold reduction in Imipenem MIC in the presence of compounds (μg/mL) 4: compound at 4 μg/mL; for Fold reduction in Imipenem MIC in the presence of compounds (μg/mL) 8: compound at 8 μg/mL; for Fold reduction in Imipenem MIC in the presence of compounds (μg/mL) 16: compound at 16 μg/mL; for Fold reduction in Imipenem MIC in the presence of compounds (μg/mL) 32: compound at 32 μg/mL
# From the text: (§2) The strain included in the study was Klebsiella pneumoniae ATCC BAA-2146 (Himedia®, India) with presence of New Delhi metallo-β-lactamase (NDM-1) gene. The quality control reference strains Escherichia coli ATCC 25922 and Pseudomonas aeruginosa ATCC 27853 were procured from Himedia®, India.
# (§3) The fold modulation activity of test compounds, in combination with Imipenem or Meropenem, was checked against Klebsiella pneumoniae ATCC BAA-2146 strain by the broth-microdilution checkerboard synergy assay. The plates contained 5×10^5 CFU/mL bacterial inocula and 2-fold serial dilutions of the antibiotics (128-2 μg/mL) as well as test compounds (32-4 μg/mL) in a total volume of 200 μL of CA-MHB. Dimethyl sulfoxide (DMSO, ≤2.5%) was included as vehicle control. Following 16-18 h of incubation at 37° C., the MICs of antibiotics as well as drug combinations were visually inspected.
# [2] = system: Klebsiella pneumoniae ATCC BAA-2146; test: Minimum inhibitory concentration (MIC), broth-microdilution (CLSI); assay type: cell-based; settings: ATCCBAA2146, compound alone, K. pneumoniae ATCC BAA-2146, read-out: Intrinsic MIC
# From the text: as §2
# MIC values were identified through broth-microdilution in sterilized 96-well polystyrene flat-bottom microtitre plates (Cole-Parmer®) according to the guideline of the Clinical and Laboratory Standards Institute (CLSI) (CLSI; Methods for dilution antimicrobial susceptibility tests for bacteria that grow aerobically; Clinical Laboratory Standards Institute, M07-A09, 2012). This method involves the use of BBL™ Cation-adjusted Mueller-Hinton II Broth (CA-MHB; BD) and the strain (Klebsiella pneumoniae ATCC BAA-2146) concentration was adjusted to 5×10^5 CFU/mL. After 16-18 h of incubation at various concentrations of Imipenem, Meropenem (Alfa Aesar), or test compounds at 37° C., MIC was defined as the lowest concentration of antibiotic or test compound with no visible growth.
# [3] = system: Klebsiella pneumoniae ATCC BAA-2146; test: Checkerboard synergy assay in combination with Meropenem; assay type: cell-based; settings: K. pneumoniae ATCC BAA-2146; for Fold reduction in meropenem MIC in the presence of compounds (μg/mL) 8: compound at 8 μg/mL; for Fold reduction in meropenem MIC in the presence of compounds (μg/mL) 16: compound at 16 μg/mL; for Fold reduction in meropenem MIC in the presence of compounds (μg/mL) 32: compound at 32 μg/mL; for Fold reduction in meropenem MIC in the presence of compounds (μg/mL) 4: compound at 4 μg/mL
# From the text: as §2, §3
# Sequence of IMP-1 (P52699 19-246, looked up, species assumed): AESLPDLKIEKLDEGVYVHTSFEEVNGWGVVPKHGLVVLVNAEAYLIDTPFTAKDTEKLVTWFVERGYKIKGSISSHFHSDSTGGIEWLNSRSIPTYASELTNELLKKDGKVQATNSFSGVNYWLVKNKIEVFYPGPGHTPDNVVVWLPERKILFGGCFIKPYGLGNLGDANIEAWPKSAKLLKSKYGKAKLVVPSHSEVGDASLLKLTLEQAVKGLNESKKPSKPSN
SMILES,IC50 (IMP-1) [µM],IC50 (NDM-1) [µM],Fold reduction in Imipenem MIC in the presence of compounds (μg/mL) 4 [1] [fold],Fold reduction in Imipenem MIC in the presence of compounds (μg/mL) 8 [1] [fold],Fold reduction in Imipenem MIC in the presence of compounds (μg/mL) 16 [1] [fold],Fold reduction in Imipenem MIC in the presence of compounds (μg/mL) 32 [1] [fold],MIC ([2]; Imipenem series) [µg/mL],MIC ([2]; meropenem series) [µg/mL],Fold reduction in meropenem MIC in the presence of compounds (μg/mL) 8 [3] [fold],Fold reduction in meropenem MIC in the presence of compounds (μg/mL) 16 [3] [fold],Fold reduction in meropenem MIC in the presence of compounds (μg/mL) 32 [3] [fold],Fold reduction in meropenem MIC in the presence of compounds (μg/mL) 4 [3] [fold]
"O=C(O)c1[nH]c2c(c1-c1cc(F)cc(F)c1)CCc1ccccc1-2 [Example 52, 3-(3,5-difluorophenyl)-4,5-dihydro-1H-benzo[g]indole-2-carboxylic Acid]",4.87,0.158,4,4,8,8,> 128,> 128,2,2,4,
"O=C(O)c1[nH]c2c(c1-c1ccc(F)c(F)c1)CCc1ccccc1-2 [Example 37, 3-(3,4-Difluorophenyl)-4,5-dihydro-1H-benzo[g]indole-2-carboxylic Acid]",3.86,0.342,2,2,4,4,> 64,> 64,4,4,4,4
"O=C(O)c1[nH]c2c(c1-c1ccc(Cl)cc1)CCc1ccccc1-2 [Example 43, 3-(4-chlorophenyl)-4,5-dihydro-1H-benzo[g]indole-2-carboxylic Acid]",1.48,0.007,4,4,4,8,> 128,> 128,4,4,4,4
"COc1ccc(F)cc1-c1c(C(=O)O)[nH]c2c1CCc1ccccc1-2 [Example 34, 3-(5-Fluoro-2-methoxyphenyl)-4,5-dihydro-1H-benzo[g]indole-2-carboxylic Acid]",0.096,0.103,4,8,8,16,> 128,> 128,4,4,16,4
"COc1cc(F)ccc1-c1c(C(=O)O)[nH]c2c1CCc1ccccc1-2 [Example 56, 3-(4-fluoro-2-methoxyphenyl)-4,5-dihydro-1H-benzo[g]indole-2-carboxylic Acid]",2.67,0.143,,,,2,> 128,> 128,4,4,8,4
"COc1cc(F)cc(-c2c(C(=O)O)[nH]c3c2CCc2ccccc2-3)c1 [Example 62, 3-(3-fluoro-5-methoxyphenyl)-4,5-dihydro-1H-benzo[g]indole-2-carboxylic Acid]",3.45,0.196,4,4,8,8,> 128,> 128,,,,
"O=C(O)c1[nH]c2c(c1-c1ccccc1)CCc1ccccc1-2 [Example 63, 3-phenyl-4,5-dihydro-1H-benzo[g]indole-2-carboxylic Acid]",4.05,2.36,4,4,8,8,> 128,> 128,,,,
"Cc1ccc(-c2c(C(=O)O)[nH]c3c2CCc2ccccc2-3)c(F)c1 [Example 49, 3-(2-fluoro-4-methylphenyl)-4,5-dihydro-1H-benzo[g]indole-2-carboxylic Acid]",2.05,0.319,,,,,> 128,> 128,2,4,4,2
"O=C(O)c1[nH]c2c(c1-c1cc(Cl)cc(Cl)c1)CCc1ccccc1-2 [Example 2, 3-(3,5-dichlorophenyl)-4,5-dihydro-1H-benzo[g]indole-2-carboxylic Acid]",0.026,0.036,,,,,> 64,> 128,8,8,16,4
